3 compounds from patent US5332757A, “Oxime derivatives” (Zeneca Limited, priority 1992, dated 1994) can be followed below.

For orientation: IC50 means the concentration needed to halve the response being measured. As a reminder, the ED50 is the dose that gives a 50% effect, or the effect in half of the subjects.

For experiment [1], the target named is T1, 5-LO (Homo sapiens, UniProt P09917).
T1 construct: incubating a test compound with heparinised human blood, prior to challenge with the calcium ionophore A23187; from tissue; host or cells: heparinised human blood (endogenous enzyme of the blood cells)
T1 sequence (P09917 1-674): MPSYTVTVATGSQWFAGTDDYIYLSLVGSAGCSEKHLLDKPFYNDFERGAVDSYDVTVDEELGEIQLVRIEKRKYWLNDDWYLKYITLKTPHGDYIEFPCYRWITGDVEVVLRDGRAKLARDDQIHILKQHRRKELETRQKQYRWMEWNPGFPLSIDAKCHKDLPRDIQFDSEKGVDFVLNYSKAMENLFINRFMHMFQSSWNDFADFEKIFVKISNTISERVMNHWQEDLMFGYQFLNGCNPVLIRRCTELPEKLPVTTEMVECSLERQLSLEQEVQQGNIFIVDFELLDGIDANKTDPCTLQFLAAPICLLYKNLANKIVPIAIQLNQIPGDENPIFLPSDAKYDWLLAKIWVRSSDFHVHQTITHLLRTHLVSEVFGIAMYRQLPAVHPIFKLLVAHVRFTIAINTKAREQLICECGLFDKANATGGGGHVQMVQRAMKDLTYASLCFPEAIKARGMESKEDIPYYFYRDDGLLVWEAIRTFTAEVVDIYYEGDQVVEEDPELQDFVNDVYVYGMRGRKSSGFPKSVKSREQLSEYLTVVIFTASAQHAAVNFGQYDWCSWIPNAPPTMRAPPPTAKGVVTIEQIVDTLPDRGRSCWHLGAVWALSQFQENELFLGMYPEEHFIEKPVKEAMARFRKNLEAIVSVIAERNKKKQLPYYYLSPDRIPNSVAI
Nature of the experiment: test a) in vitro assay, heparinised human blood challenged with calcium ionophore A23187, LTB4 radioimmunoassay. The format is cell-based. As for the experimental part: a) An in vitro assay system involving incubating a test compound with heparinised human blood, prior to challenge with the calcium ionophore A23187 and then indirectly measuring the inhibitory effects on 5-LO by assaying the amount of LTB4 using specific radioimmunoassays described by Carey and Forder (Prostaglandins, Leukotrienes Med., 1986, 22, 57; Prostaglandins, 1984, 28, 666; Brit. J. Pharmacol., 1985, 84, 34P) which involves the use of a protein-LTB4 conjugate produced using the procedure of Young et alia (Prostaglandins, 1983, 26(4), 605-613). The effects of a test compound on the enzyme cyclooxygenase (which is involved in the alternative metabolic pathway for arachidonic acid and gives rise to prostaglandins, thromboxanes and related metabolites) may be measured at the same time using the specific radioimmunoassay for thromboxane B2 (TxB2) described by Carey and Forder (see above). This test provides an indication of the effects of a test compound against 5-LO and also cyclooxygenase in the presence of blood cells and proteins. It permits the selectivity of the inhibitory effect on 5-LO or cyclooxygenase to be assessed.

For experiment [2], the target named is T2, 5-LO (Rattus norvegicus, UniProt P12527).
T2 construct: within an air pouch generated within the subcutaneous tissue of the back of male rats; from tissue; host or cells: living male rats, cells of the zymosan-inflamed subcutaneous air pouch
T2 sequence (P12527 1-673): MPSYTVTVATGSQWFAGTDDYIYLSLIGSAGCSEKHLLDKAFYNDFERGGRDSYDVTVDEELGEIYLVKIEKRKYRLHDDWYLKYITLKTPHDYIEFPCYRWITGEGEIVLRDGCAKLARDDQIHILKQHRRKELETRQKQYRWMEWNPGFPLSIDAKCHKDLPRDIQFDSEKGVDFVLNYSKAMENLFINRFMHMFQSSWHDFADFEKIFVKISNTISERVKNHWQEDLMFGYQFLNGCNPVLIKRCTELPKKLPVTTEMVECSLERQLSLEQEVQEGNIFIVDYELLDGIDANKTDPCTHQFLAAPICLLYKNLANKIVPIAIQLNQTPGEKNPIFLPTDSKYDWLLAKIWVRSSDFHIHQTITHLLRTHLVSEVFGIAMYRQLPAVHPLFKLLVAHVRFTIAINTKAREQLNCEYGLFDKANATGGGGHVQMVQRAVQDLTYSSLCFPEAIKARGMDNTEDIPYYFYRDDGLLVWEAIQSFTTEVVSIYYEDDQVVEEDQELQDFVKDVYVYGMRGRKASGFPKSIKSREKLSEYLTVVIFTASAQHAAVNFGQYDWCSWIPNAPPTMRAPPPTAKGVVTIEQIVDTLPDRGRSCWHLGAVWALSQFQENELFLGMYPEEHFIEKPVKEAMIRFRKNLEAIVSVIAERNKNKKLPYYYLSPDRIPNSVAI
Nature of the experiment: test c) in vivo zymosan-induced liberation of LTB4 in rat air pouch. The arrangement: species or system male rats. The following applies: 3 h; test c), oral. As for the experimental part: c) An in vivo system involving measuring the effects of a test compound administered orally against the liberation of LTB4 induced by zymosan within an air pouch generated within the subcutaneous tissue of the back of male rats. The rats are anaesthetised and air pouches are formed by the injection of sterile air (20 ml). A further injection of air (10 ml) is similarly given after 3 days. At 6 days after the initial air injection the test compound is administered (usually orally as the suspension produced when a solution of the test compound in dimethylsulphoxide is added to hydroxypropylmethylcellulose), followed by the intrapouch injection of zymosan (1 ml of a 1% suspension in physiological saline). After 3 hours the rats are killed, the air pouches are lavaged with physiological saline, and the specific radioimmunoassay described above is used to assay LTB4 in the washings. This test provides an indication of inhibitory effects against 5-LO in an inflammatory milieu.

Take `CO/N=C(\C)c1ccc(Sc2cc(F)cc(C3(OC)CCOCC3)c2)cc1` [Example 2, (E)-4'-[5-fluoro-3-(4-methoxytetrahydropyran-4-yl)phenylthio]acetophenone oxime O-methyl ether]: the 50% inhibitory concentration (IC50) on 5-LO [1] was found to be 110 nM. For the same compound, the ED50 on 5-LO [2] is approximately 0.5 mg/kg.
Consider `COC1(c2cc(F)cc(Sc3ccc(/C(C)=N/OCC#N)cc3)c2)CCOCC1` [Example 5, (E)-4'-[5-fluoro-3-(4-methoxytetrahydropyran-4-yl)phenylthio]acetophenone oxime O-cyanomethyl ether], for which the IC50 on 5-LO [1] was found to be 30 nM. In addition, the ED50 on 5-LO [2] was approximately 0.5 mg/kg.
As to `CO[C@]1(c2cc(F)cc(Sc3ccc(/C(C)=N/O)cc3)c2)CCO[C@@H](C)C1` [Example 26, (E)-4'-{5-fluoro-3-[(2S,4R)-4-methoxy-2-methyltetrahydropyran-4-yl]phenylthio}acetophenone oxime], the IC50 on 5-LO [1] worked out at 40 nM. The ED50 at 5-LO [2] was approximately 0.05 mg/kg.
